One test has as its target BCL6 BTB/POZ domain (Homo sapiens, UniProt P41182, C67R/C84N/C8Q). In words: Cocrystal structure with BCL6 BTB/POZ dimer. Also noted: hBCL6-Flag 3Cmut (5-129) produced in house; FLAG (C); made in house. The following applies: via a sulfonate ester. The source says:
Crystal structures of SFs 2f and 2s within BCL6 were generated to further investigate the binding mode of the fragments; this used a previously published protocol.[42] […] The twisted conformation of 2s could also represent a premodified state of the protein–SF complex, which may have become disrupted for 2f upon covalent modification with Tyr57 to afford the extended conformation observed.
(§1) The fluorescence intensity data from the individual replicates of each sample type were normalized and identically truncated within GraphPad Prism 5.0.4.11 These values were subsequently fitted to equation (4) corresponding to a Boltzmann sigmoid in order to obtain the melting temperature (“V50”; T m) of the protein:
(§2) Y=BOTTOM+((TOP+BOTTOM)/(1+exp((V50–X)/SLOPE))) (4)
(§3) The three obtained T m values were averaged to give a final T m value in each case. The normalized fluorescence data for the three replicates of each sample were averaged to yield a single dataset for each case, which were then plotted in GraphPad Prism 5.0.4 to give the plots shown in the manuscript.11
(§4) Table S9. Thermal melting temperatures of unmodified and covalently modified BCL6 BTB/POZ domain as determined by differential scanning fluorimetry measurements.
(§5) The arithmetic mean and standard deviation from three replicates are shown.
(§6) Hit Chemotype Protein Species Tm / °C ΔT m / °C […]

The next test deals with T1, BCL6 (Homo sapiens, UniProt P41182, C67R/C84N/C8Q).
T1 construct: hBCL6-Flag-6H-Avi 3Cmut (5–129) produced as part of the GSK/GenScript collaboration; Flag (C); 6H (His6) (C); Avi (C)
Nature of the test: Kinetic analyses of covalent modification, intact protein LC-MS. In kind it is binding. The following applies: 0.5 μM BCL6; 5-100 μM SF; 4 °C.
Text: as §1, §2, §3, §4, §5, §6
meta-Substituted Benzamide BCL6 + 2g 70.4 ± 0.3 +11.7
Azetidinyl Fragments BCL6 + 2h 55.5 ± 0.1 −3.2 […]
8.3. Protocol for kinetic analyzes (BCL6) […]
BCL6 BTB domain (BCL65–129(C8Q,C67R,C84N)-FLAG, 10 µM) was incubated with each compound (500 µM, eq. 0.25% v/v DMSO) in 20 mM Tris pH 8.5 and 150 mM NaCl (2 mL) at 20 °C for 6 h. […] The protein-fragment complex was concentrated to >6 mg/mL, as determined by spectrophotometry. […]

For the molecule `CN(C)C(=O)Nc1cccc(CNC(=O)Cc2ccc(S(=O)(=O)F)cc2)c1` [2f], at BCL6 BTB/POZ domain, the “residue covalently conjugated in cocrystal structure” value was “Tyr57”. The Ki at BCL6 was 56 µM.

For `CC(=O)Nc1cccc(CNC(=O)Cc2ccc(S(=O)(=O)F)cc2)c1` [2g], on BCL6, the Ki was found to be 80 µM.

Source of the values: paper PMC10510102, “Efficient Ligand Discovery Using Sulfur(VI) Fluoride Reactive Fragments” (ACS Chemical Biology, 2023).
